≈ marks a conversion by molar mass, not a printed value.
Legend:
Format in all cases: functional
Staphylococcus aureus [1] = assay: Antibacterial activity against methicillin-resistant Staphylococcus aureus N315 after 24 hrs by micro broth dilution assay; conditions: N315, 24 h
Cyberlindnera jadinii = assay: Antifungal activity against Candida utilis ATCC 9950 after 24 hrs by micro broth dilution assay; conditions: Williopsis jadinii, ATCC 9950, 24 h
Candida albicans = assay: Antifungal activity against Candida albicans ATCC 10231 after 24 hrs by micro broth dilution assay; conditions: ATCC 10231, 24 h
Saccharomyces cerevisiae = assay: Antifungal activity against Beer yeast ATCC 9763 after 24 hrs by micro broth dilution assay; conditions: ATCC 9763, 24 h
Bacillus spizizenii = assay: Antibacterial activity against Bacillus subtilis ATCC 6633 after 24 hrs by micro broth dilution assay; conditions: ATCC 6633, 24 h
Staphylococcus aureus [2] = assay: Antibacterial activity against Staphylococcus aureus ATCC 25923 after 24 hrs by micro broth dilution assay; conditions: ATCC 25923, 24 h
Pseudomonas aeruginosa = assay: Antibacterial activity against Pseudomonas aeruginosa ATCC 27853 a after 24 hrs by micro broth dilution assay; conditions: ATCC 27853, 24 h
Escherichia coli = assay: Antibacterial activity against Escherichia coli DH52 after 24 hrs by micro broth dilution assay; conditions: DH52, 24 h
Micrococcus luteus = assay: Antibacterial activity against Micrococcus luteus ATCC 4698 after 24 hrs by micro broth dilution assay; conditions: ATCC 4698, 24 h
Bacillus sp. = assay: Antibacterial activity against Bacillus proteus ATCC 13315 after 24 hrs by micro broth dilution assay; conditions: Bacillus sp. (in: firmicutes), ATCC 13315, 24 h
Candida = assay: Antifungal activity against Candida mycoderma ATCC 9888 after 24 hrs by micro broth dilution assay; conditions: ATCC 9888, 24 h
Aspergillus flavus = assay: Antifungal activity against Aspergillus flavus ATCC 204304 after 24 hrs by micro broth dilution assay; conditions: ATCC 204304, 24 h
[3] = Antibacterial activity against Eberthella typhosa ATCC 14028 after 24 hrs by micro broth dilution assay; conditions: ATCC 14028, 24 h

Row | SMILES | MIC (Staphylococcus aureus [1]) [µM] | MIC (Cyberlindnera jadinii) [µM] | MIC (Candida albicans) [µM] | MIC (Saccharomyces cerevisiae) [µM] | MIC (Bacillus spizizenii) [µM] | MIC (Staphylococcus aureus [2]) [µM] | MIC (Pseudomonas aeruginosa) [µM] | MIC (Escherichia coli) [µM] | MIC (Micrococcus luteus) [µM] | MIC (Bacillus sp.) [µM] | MIC (Candida) [µM] | MIC (Aspergillus flavus) [µM] | MIC [3] [µM]
1 | O=c1c2ccc(F)cc2ncn1CCCCn1cnc([N+](=O)[O-])c1 | 190 (≈ 62.9 µg/mL) | 390 (≈ 129 µg/mL) | 100 (≈ 33.1 µg/mL) | 100 (≈ 33.1 µg/mL) | 50 (≈ 16.6 µg/mL) | 390 (≈ 129 µg/mL) | 770 (≈ 255 µg/mL) | 770 (≈ 255 µg/mL) | 50 (≈ 16.6 µg/mL) | 390 (≈ 129 µg/mL) | 770 (≈ 255 µg/mL) | 770 (≈ 255 µg/mL) | 390 (≈ 129 µg/mL)
2 | O=c1c2ccc(F)cc2ncn1CCn1cncn1 | 490 (≈ 127 µg/mL) | 990 (≈ 257 µg/mL) | 990 (≈ 257 µg/mL) | 490 (≈ 127 µg/mL) | 490 (≈ 127 µg/mL) | 990 (≈ 257 µg/mL) | 30 (≈ 7.78 µg/mL) | 250 (≈ 64.8 µg/mL) | 30 (≈ 7.78 µg/mL) | 990 (≈ 257 µg/mL) | 490 (≈ 127 µg/mL) | 990 (≈ 257 µg/mL) | 990 (≈ 257 µg/mL)
3 | O=c1c2ccc(F)cc2ncn1CCCCBr | 430 (≈ 129 µg/mL) | 430 (≈ 129 µg/mL) | 860 (≈ 257 µg/mL) | 860 (≈ 257 µg/mL) | 1710 (≈ 512 µg/mL) | > 1710 | > 1710 | 1710 (≈ 512 µg/mL) | 860 (≈ 257 µg/mL) | 860 (≈ 257 µg/mL) | > 1710 | 1710 (≈ 512 µg/mL) | > 1710
4 | O=c1c2ccc(Cl)cc2ncn1CCn1ccnc1 | 930 (≈ 255 µg/mL) | 470 (≈ 129 µg/mL) | 930 (≈ 255 µg/mL) | 930 (≈ 255 µg/mL) | > 1860 | > 1860 | 930 (≈ 255 µg/mL) | 1860 (≈ 511 µg/mL) | 470 (≈ 129 µg/mL) | 1860 (≈ 511 µg/mL) | > 1860 | 930 (≈ 255 µg/mL) | > 1860
5 | O=c1c2ccc(Cl)cc2ncn1CCCCCCCCCCBr | 640 (≈ 256 µg/mL) | 320 (≈ 128 µg/mL) | > 1280 | 640 (≈ 256 µg/mL) | 1280 (≈ 512 µg/mL) | > 1280 | > 1280 | 640 (≈ 256 µg/mL) | 320 (≈ 128 µg/mL) | 320 (≈ 128 µg/mL) | > 1280 | > 1280 | > 1280
6 | OC(Cn1cncn1)(Cn1cncn1)c1ccc(F)cc1F [FLUCONAZOLE] | > 1670 | 30 (≈ 9.19 µg/mL) | < 10 | 50 (≈ 15.3 µg/mL) | > 1670 | > 1670 | > 1670 | > 1670 | > 1670 | > 1670 | 10 (≈ 3.06 µg/mL) | 840 (≈ 257 µg/mL) | > 1670
7 | O=c1c2ccc(Cl)cc2ncn1CCCCCCBr | 740 (≈ 254 µg/mL) | 740 (≈ 254 µg/mL) | > 1490 | 740 (≈ 254 µg/mL) | 1490 (≈ 512 µg/mL) | > 1490 | > 1490 | 1490 (≈ 512 µg/mL) | 370 (≈ 127 µg/mL) | 740 (≈ 254 µg/mL) | > 1490 | > 1490 | > 1490
8 | Cc1ncc([N+](=O)[O-])n1CCCCn1cnc2cc(F)ccc2c1=O | 20 (≈ 6.91 µg/mL) | 50 (≈ 17.3 µg/mL) | 20 (≈ 6.91 µg/mL) | 50 (≈ 17.3 µg/mL) | 50 (≈ 17.3 µg/mL) | 50 (≈ 17.3 µg/mL) | > 1480 | 50 (≈ 17.3 µg/mL) | 50 (≈ 17.3 µg/mL) | 20 (≈ 6.91 µg/mL) | 50 (≈ 17.3 µg/mL) | 20 (≈ 6.91 µg/mL) | 20 (≈ 6.91 µg/mL)
9 | O=c1c2ccc(Cl)cc2ncn1CCn1cnc([N+](=O)[O-])c1 | 200 (≈ 63.9 µg/mL) | 400 (≈ 128 µg/mL) | 100 (≈ 32 µg/mL) | 200 (≈ 63.9 µg/mL) | 50 (≈ 16 µg/mL) | 800 (≈ 256 µg/mL) | > 1600 | 800 (≈ 256 µg/mL) | 50 (≈ 16 µg/mL) | 400 (≈ 128 µg/mL) | 800 (≈ 256 µg/mL) | > 1600 | 400 (≈ 128 µg/mL)
10 | O=c1c2ccc(Cl)cc2ncn1CCCCCn1cnc([N+](=O)[O-])c1 | 180 (≈ 65.1 µg/mL) | 350 (≈ 127 µg/mL) | 90 (≈ 32.6 µg/mL) | 90 (≈ 32.6 µg/mL) | 40 (≈ 14.5 µg/mL) | 180 (≈ 65.1 µg/mL) | 350 (≈ 127 µg/mL) | 350 (≈ 127 µg/mL) | 40 (≈ 14.5 µg/mL) | 350 (≈ 127 µg/mL) | 180 (≈ 65.1 µg/mL) | 710 (≈ 257 µg/mL) | 350 (≈ 127 µg/mL)
11 | CCn1cc(C(=O)O)c(=O)c2cc(F)c(N3CCNCC3)cc21 [NORFLOXACIN] | 30 (≈ 9.58 µg/mL) | > 1600 | > 1600 | > 1600 | 10 (≈ 3.19 µg/mL) | 10 (≈ 3.19 µg/mL) | 10 (≈ 3.19 µg/mL) | 50 (≈ 16 µg/mL) | 10 (≈ 3.19 µg/mL) | 10 (≈ 3.19 µg/mL) | > 1600 | > 1600 | 10 (≈ 3.19 µg/mL)
12 | O=c1c2ccc(Cl)cc2ncn1CCCCCCn1cnc([N+](=O)[O-])c1 | 170 (≈ 63.9 µg/mL) | 340 (≈ 128 µg/mL) | 40 (≈ 15 µg/mL) | 90 (≈ 33.8 µg/mL) | 40 (≈ 15 µg/mL) | 340 (≈ 128 µg/mL) | 340 (≈ 128 µg/mL) | 170 (≈ 63.9 µg/mL) | 40 (≈ 15 µg/mL) | 90 (≈ 33.8 µg/mL) | 40 (≈ 15 µg/mL) | 170 (≈ 63.9 µg/mL) | 340 (≈ 128 µg/mL)
13 | O=c1c2ccc(Cl)cc2ncn1CCCCCBr | 780 (≈ 257 µg/mL) | 390 (≈ 129 µg/mL) | > 1550 | 780 (≈ 257 µg/mL) | 1550 (≈ 511 µg/mL) | > 1550 | > 1550 | 1550 (≈ 511 µg/mL) | 390 (≈ 129 µg/mL) | 390 (≈ 129 µg/mL) | > 1550 | > 1550 | > 1550
14 | Cc1ncc([N+](=O)[O-])n1CCn1cnc2cc(Cl)ccc2c1=O | 50 (≈ 16.7 µg/mL) | 50 (≈ 16.7 µg/mL) | 50 (≈ 16.7 µg/mL) | 50 (≈ 16.7 µg/mL) | 50 (≈ 16.7 µg/mL) | 100 (≈ 33.4 µg/mL) | > 1530 | 100 (≈ 33.4 µg/mL) | 100 (≈ 33.4 µg/mL) | 50 (≈ 16.7 µg/mL) | 50 (≈ 16.7 µg/mL) | 20 (≈ 6.67 µg/mL) | 20 (≈ 6.67 µg/mL)
15 | Cc1ncc([N+](=O)[O-])n1CCCCCn1cnc2cc(F)ccc2c1=O | 20 (≈ 7.19 µg/mL) | 20 (≈ 7.19 µg/mL) | 40 (≈ 14.4 µg/mL) | 20 (≈ 7.19 µg/mL) | 20 (≈ 7.19 µg/mL) | 40 (≈ 14.4 µg/mL) | > 1420 | 40 (≈ 14.4 µg/mL) | 20 (≈ 7.19 µg/mL) | 20 (≈ 7.19 µg/mL) | 40 (≈ 14.4 µg/mL) | 20 (≈ 7.19 µg/mL) | 20 (≈ 7.19 µg/mL)
16 | O=c1c2ccc(Cl)cc2ncn1CCn1cncn1 | 460 (≈ 127 µg/mL) | 460 (≈ 127 µg/mL) | 930 (≈ 256 µg/mL) | 460 (≈ 127 µg/mL) | 460 (≈ 127 µg/mL) | 930 (≈ 256 µg/mL) | 30 (≈ 8.27 µg/mL) | 230 (≈ 63.4 µg/mL) | 30 (≈ 8.27 µg/mL) | 930 (≈ 256 µg/mL) | 460 (≈ 127 µg/mL) | 930 (≈ 256 µg/mL) | 930 (≈ 256 µg/mL)

From ChEMBL document CHEMBL3621068, “Synthesis and biological evaluation of a new class of quinazolinoneazoles as potential antimicrobial agents and their interactions with calf thymus DNA and human serum albumin” (Medchemcomm, 2015)
